Experiment [1] is described as follows: cells. The experiment is classed as functional, cell-based.
A short description of experiment [2]: cells. The experiment is classed as functional, cell-based. This is another data set of the same source.
In experiment [3] the target is T1, Replicative DNA helicase DnaB (Mycobacterium tuberculosis, UniProt P9WMR3).
T1 sequence (P9WMR3 whole entry): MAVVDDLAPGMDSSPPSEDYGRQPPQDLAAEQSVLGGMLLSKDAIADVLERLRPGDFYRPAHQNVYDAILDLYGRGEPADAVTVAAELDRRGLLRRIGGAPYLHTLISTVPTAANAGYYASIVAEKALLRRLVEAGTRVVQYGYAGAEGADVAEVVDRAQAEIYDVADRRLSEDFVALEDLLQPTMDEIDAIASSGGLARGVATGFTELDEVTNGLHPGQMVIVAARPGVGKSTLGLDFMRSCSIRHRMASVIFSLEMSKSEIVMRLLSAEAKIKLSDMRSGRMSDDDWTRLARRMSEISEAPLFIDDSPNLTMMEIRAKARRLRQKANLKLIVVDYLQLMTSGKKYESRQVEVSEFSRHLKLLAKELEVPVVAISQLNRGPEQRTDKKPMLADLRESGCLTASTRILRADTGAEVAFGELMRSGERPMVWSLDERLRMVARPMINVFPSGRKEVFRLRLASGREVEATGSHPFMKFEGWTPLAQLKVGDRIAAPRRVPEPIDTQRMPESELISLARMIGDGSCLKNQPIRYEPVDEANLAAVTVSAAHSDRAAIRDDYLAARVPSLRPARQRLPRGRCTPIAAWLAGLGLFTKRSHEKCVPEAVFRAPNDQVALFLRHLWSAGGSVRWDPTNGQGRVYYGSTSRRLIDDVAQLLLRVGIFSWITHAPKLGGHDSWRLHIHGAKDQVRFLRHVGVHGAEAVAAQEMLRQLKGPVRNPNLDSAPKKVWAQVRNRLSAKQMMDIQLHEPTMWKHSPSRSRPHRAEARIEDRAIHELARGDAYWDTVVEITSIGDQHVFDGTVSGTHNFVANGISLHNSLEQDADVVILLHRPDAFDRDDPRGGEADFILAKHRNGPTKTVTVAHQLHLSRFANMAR
The experiment is described as follows: DnaB intein splicing inhibitors, dose response, biochemical, cell-free fluorescence (AID 449749). The experiment is classed as functional.

In experiment [4] the target is T2, Protein RecA (Mycobacterium tuberculosis, UniProt P9WHJ3).
T2 sequence (P9WHJ3 whole entry): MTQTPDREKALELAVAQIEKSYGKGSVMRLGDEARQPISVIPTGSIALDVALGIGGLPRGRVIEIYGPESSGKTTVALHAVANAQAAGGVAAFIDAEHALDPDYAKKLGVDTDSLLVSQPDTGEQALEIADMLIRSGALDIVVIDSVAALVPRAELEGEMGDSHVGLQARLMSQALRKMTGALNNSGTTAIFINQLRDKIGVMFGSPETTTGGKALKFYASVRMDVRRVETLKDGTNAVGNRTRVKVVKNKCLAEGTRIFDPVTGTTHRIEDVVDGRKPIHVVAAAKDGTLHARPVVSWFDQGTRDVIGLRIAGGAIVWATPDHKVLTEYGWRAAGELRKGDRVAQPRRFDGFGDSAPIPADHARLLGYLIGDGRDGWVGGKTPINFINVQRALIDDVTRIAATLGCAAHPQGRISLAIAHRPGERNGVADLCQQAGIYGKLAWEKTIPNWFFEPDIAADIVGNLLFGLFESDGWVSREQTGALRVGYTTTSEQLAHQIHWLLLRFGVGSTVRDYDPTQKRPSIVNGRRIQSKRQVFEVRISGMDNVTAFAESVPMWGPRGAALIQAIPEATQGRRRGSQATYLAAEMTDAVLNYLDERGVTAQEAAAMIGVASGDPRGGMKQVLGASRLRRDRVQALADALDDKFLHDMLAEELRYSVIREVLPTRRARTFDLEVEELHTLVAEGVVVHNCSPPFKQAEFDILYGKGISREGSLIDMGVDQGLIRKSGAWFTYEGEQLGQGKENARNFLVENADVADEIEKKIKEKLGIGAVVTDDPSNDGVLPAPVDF
Briefly: Fluorescence Cell-Free Homogeneous Dose Retest to Identify Inhibitors of RecA-Intein Splicing Activity. [Related pubchem assays (depositor defined):AID2097, AID2223, AID489010, AID492950]. Format: functional.

Experiment [5] concerns the target T3, Leucine aminopeptidase (Plasmodium falciparum 3D7, UniProt Q8IL11).
T3 sequence (Q8IL11 whole entry): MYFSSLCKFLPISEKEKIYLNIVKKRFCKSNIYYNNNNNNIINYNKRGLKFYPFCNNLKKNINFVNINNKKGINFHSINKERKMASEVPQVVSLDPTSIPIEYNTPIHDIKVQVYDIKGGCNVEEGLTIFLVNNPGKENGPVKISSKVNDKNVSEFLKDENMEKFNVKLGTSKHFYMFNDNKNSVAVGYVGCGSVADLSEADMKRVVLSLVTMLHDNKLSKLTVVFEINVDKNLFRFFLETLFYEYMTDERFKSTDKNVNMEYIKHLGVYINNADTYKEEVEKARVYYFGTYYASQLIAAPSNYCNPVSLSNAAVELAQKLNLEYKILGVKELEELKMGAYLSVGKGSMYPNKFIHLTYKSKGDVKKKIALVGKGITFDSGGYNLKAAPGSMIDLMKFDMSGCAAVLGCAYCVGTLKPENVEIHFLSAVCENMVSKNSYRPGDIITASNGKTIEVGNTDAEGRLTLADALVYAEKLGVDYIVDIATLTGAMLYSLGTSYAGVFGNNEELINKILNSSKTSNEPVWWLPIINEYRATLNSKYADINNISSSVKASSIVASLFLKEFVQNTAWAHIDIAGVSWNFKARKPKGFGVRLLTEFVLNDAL
The experiment is described as follows: P. falciparum M17LAP inhibitors, primary screen, biochemical, fluorogenic H-Leu-NHMec substrate, 1536-well (AID 1619). Format: functional.

Experiment [6] deals with T4, Aminopeptidase N (Plasmodium falciparum FcB1/Columbia, UniProt O96935).
T4 sequence (O96935 whole entry): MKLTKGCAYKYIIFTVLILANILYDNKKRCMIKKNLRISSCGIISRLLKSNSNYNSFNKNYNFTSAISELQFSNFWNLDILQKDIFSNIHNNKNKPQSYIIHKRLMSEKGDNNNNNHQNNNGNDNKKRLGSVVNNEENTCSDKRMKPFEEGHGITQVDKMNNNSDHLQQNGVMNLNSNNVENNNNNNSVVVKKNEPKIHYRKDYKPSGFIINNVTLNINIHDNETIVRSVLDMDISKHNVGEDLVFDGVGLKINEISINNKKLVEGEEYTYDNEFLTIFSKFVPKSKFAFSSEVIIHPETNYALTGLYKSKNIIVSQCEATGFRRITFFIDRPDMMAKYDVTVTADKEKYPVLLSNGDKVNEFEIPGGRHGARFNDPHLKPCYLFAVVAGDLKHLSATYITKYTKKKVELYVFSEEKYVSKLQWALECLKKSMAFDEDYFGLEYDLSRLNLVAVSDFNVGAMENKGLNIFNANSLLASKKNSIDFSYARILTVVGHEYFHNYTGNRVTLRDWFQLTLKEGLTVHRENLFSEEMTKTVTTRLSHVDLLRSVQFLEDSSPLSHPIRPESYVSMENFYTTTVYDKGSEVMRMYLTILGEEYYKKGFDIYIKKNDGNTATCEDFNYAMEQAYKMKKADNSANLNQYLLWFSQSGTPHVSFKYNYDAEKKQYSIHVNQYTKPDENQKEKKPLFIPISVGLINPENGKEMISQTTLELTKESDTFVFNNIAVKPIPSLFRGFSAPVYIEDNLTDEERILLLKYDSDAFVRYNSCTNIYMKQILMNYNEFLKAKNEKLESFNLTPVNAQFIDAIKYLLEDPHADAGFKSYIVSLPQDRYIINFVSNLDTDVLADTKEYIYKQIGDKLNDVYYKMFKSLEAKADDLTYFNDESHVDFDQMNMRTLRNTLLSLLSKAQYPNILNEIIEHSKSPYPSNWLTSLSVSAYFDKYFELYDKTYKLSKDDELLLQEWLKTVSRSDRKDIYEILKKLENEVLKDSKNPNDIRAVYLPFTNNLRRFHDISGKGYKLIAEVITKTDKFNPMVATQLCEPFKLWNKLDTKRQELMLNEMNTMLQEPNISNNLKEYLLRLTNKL
Briefly: P. falciparum M1AAP inhibitors, biochemical, fluorogenic H-Leu-NHMec substrate, 1536-well (AID 1445). On the set-up: species or system Plasmodium falciparum 3D7, 3D7.

The nature of experiment [7]: C. albicans growth with fluconazole, confirmation, fluorescence, retest (AID 2467). The experiment is classed as functional, cell-based.
Experiment [8] is described as follows: NIH-3T3 fibroblast cytotoxicity, dose response, cytotoxicity control, cell-based, fluorescence, Alamar Blue, secondary assay (AID 2327).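 Further: NIH-3T3 mouse fibroblasts cultured with fluconazole at 8 µg/mL.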 Format: functional.
The subject of experiment [9] is INS1. Briefly: beta cell apoptosis inhibitors, cytokine rescue, dose response, luminescence, retest (AID 449756).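 Further: cell death triggered by IL-1 beta plus TNF-alpha plus IFN-gamma mixture; protective hits raise ATP signal compared with cytokine alone wells.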 The experiment is classed as functional, cell-based. The following applies: Rattus norvegicus.
In experiment [10] the target is T5, Rac GTPase-activating protein 1 (Homo sapiens, UniProt Q9H0H5).
T5 sequence (Q9H0H5 whole entry): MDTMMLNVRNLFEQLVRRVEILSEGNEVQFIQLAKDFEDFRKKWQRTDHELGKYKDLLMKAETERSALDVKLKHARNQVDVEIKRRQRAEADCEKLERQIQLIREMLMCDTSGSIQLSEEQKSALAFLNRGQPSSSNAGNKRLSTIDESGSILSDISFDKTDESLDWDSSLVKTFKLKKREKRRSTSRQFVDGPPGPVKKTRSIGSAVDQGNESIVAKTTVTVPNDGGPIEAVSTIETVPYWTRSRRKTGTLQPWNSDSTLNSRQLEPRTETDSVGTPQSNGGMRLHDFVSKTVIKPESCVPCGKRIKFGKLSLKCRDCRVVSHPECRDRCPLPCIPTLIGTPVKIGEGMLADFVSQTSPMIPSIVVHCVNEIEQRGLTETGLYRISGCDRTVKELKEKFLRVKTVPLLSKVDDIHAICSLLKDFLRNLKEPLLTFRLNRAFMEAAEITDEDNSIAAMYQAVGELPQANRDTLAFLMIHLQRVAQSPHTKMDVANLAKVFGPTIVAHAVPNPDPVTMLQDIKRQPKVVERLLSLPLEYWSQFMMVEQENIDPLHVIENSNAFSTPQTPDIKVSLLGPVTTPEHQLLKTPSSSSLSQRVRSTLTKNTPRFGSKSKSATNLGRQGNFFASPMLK
Briefly: MgcRacGAP GTPase-activating activity inhibitors, confirmation, biochemical, ADP Hunter fluorescence, primary and confirmatory (AID 624330). Format: functional.

Calls of active or inactive are those of the source.

As a reminder, the EC50 is the concentration that produces a half-maximal response. For `CCN(CC)CCNCc1nc2ccccc2c(=O)n1-c1ccc(F)cc1`, the EC50 in experiment [1] and in experiment [2] was > 350 µM (not active) each time.
The term AC50 denotes the midpoint of the concentration-response curve, whichever way the signal moves. By IC50 is commonly meant the concentration at which inhibition is half-maximal. Regarding `C/C(=C\c1ccco1)C1C(C#N)=C(N)Oc2[nH]nc(-c3ccccc3)c21` (configuration not stated), in [3], the concentration at half-maximal activity (AC50) was 6.38 µM (active). Further, the EC50 in experiment [4] was 3.12 µM (active). Besides, in experiment [5], the IC50 was 83.7 µM (active).
Turning to `CCOC(=O)C1=C(Nc2ccc(C)cc2)S/C(=C\c2ccc(OCC(=O)O)c(OCC)c2)C1=O`, the IC50 in experiment [6] is 48.6 µM (active); in experiment [5] it was 15.6 µM (active).
In the case of `N#C[C-](C#N)c1nc2ccccc2nc1-[n+]1cccc(NC(=O)c2ccc(F)cc2)c1`, the concentration for a half-maximal effect (EC50) in [1] and in experiment [2] was > 350 µM (not active) in each case.
For `O=c1oc2c(CN3CCOCC3)c(O)c(Cl)cc2c2c1CCCC2`, the concentration for half-maximal inhibition (IC50) in experiment [6] is 32.2 µM (active).
With `Cn1ncc(Br)c1C(=O)OCC(=O)Nc1nc(-c2ccccc2)cs1`, the concentration for a half-maximal effect (EC50) in experiment [1] was 36.4 µM (active); in experiment [2] it was > 350 µM (not active).
With `N#Cc1c(-c2ccccc2)nc(SCC(=O)N(c2ccccc2)c2ccccc2)[nH]c1=O`, in experiment [6], the IC50 was 34.3 µM (active).
Regarding `OCCN1CCN(C(S)=NC2CCCC2)CC1`, the concentration giving a half-maximal response (EC50) in experiment [7] is 5.25 µM (active); in experiment [8], 50.8 µM (active).
In the case of `Cc1cccc(/C=N/NC(=O)c2c(-c3ccccc3)noc2C)c1O`, the EC50 in experiment [1] is > 350 µM (not active); in experiment [2], 23 µM (active). Besides, in experiment [9], the AC50 is 1.5 µM (active).
With `Cn1cccc1C(=O)NC(=O)COC(=O)c1cc(S(=O)(=O)N2CCCCC2)ccc1Cl`, the half-maximal effective concentration (EC50) in experiment [1] and in experiment [2] was > 350 µM (not active) each time.
For `O=c1oc2c(CN3CCOCC3)c(O)c(Cl)cc2c2c1CCC2`, the IC50 in [6] was 42.9 µM (active).
On to `Cc1ccc(C2(C)NC(=O)N(CC(=O)NC(=O)NC(C)(C)C)C2=O)cc1` (configuration not stated), for which the EC50 in experiment [1] and in experiment [2] was > 350 µM (not active) in each case.
For `O=C(C[n+]1ccn(CCCNP2(=O)C=C(c3ccccc3)OC(c3ccccc3)=C2)c1)c1cccs1`, the concentration for a half-maximal effect (EC50) in experiment [1] and in experiment [2] was > 350 µM (not active) throughout.
Turning to `CCOC(=O)c1c(C)[nH]c(C(=O)OCc2ccccc2F)c1C`, the 50% effective concentration (EC50) in experiment [1] was 93.5 µM (active); in experiment [2], > 350 µM (not active).
With `CCCC1C(c2ccco2)NC(c2ccco2)CC1(C)O` (configuration not stated), the figures for the 50% effective concentration (EC50) in experiment [7] and in experiment [8] were 8.34 µM (active) and > 150 µM (inactive), respectively.
Turning to `CC(=O)Nc1ccc(NC(=O)CCCN2C(=O)c3ccccc3C2=O)cc1`, the EC50 in experiment [8] was > 150 µM (inactive).
Turning to `O=[N+]([O-])c1ccc(/C(=N\c2cccc3ccccc23)N2CCOCC2)cc1`, the concentration giving a half-maximal response (EC50) in experiment [7] is > 38 µM (not active); in [8], > 150 µM (inactive).
Regarding `CCOC(=O)CC1C(=O)NCCN1c1nc2c(C)cccn2c(=O)c1/C=C1\SC(=S)N(CC(C)C)C1=O` (configuration not stated), the IC50 in experiment [6] is 42.5 µM (active).
As to `O=C1c2ccccc2C(=O)N1/N=C/c1ccc(O)c(O)c1`, the IC50 was 44.5 µM (active) in [10] and 30.4 µM (active) in [5].
On to `O=C1c2ccccc2NC(c2c[nH]nc2-c2ccc(Cl)cc2)N1O` (configuration not stated), for which the values for the concentration for a half-maximal effect (EC50) in experiment [7] and in experiment [8] were > 38 µM (not active) and > 160 µM (inactive), respectively.
